The values that follow come from patent publication US6013672A, “Agonists of metabotropic glutamate receptors and uses thereof” (UAB Research Foundation, priority 1997, dated 2000).

As usually defined, the IC50 is the concentration needed to halve the response being measured. High values mean weaker potency in that assay, low ones greater potency in that assay. The term Km denotes the concentration of substrate that gives half-maximal velocity.

For data set [1], the system named is dopaminergic neurons. The data set can be described thus: Cell death of dopaminergic neurons induced by glutamate or MPTP. The format is cell-based, rat. The method, then:
Cell death of dopaminergic neurons induced by glutamate, and the role of glial glutamate transport in protection of cell death at the cellular level were studied as it relates to Parkinson's disease. […] Thus, glutamate concentrations as low as 3-5 μM induced rapid cell death (FIGS. 11 and 12). Glutamate concentrations were also measured in the normal brain. They are typically around 1 μM, below the toxic level for dopaminergic neurons. […] This late onset of glutamate toxicity is compatible with the late onset of Parkinson's disease.

For data set [2], the system named is hippocampal astrocytes. Put plainly: Removal of an exogenous glutamate challenge by astrocyte cultures, [Glu]o over time. Format: cell-based, rat. The method, then:
The bioluminescence method for detection was used for glutamate in solution as described by Fosse et al. (1986) with only minor modifications. The glutamate-specific reagent mixture contained potassium phosphate (pH 7.0) 25 mM, Triton X-100 40 μg/ml, dithiothreitol 100 μM, Myristyl aldehyde 40 μM (Aldrich; Milwaukee, Wis.), β-NAD 2 mM, ADP 250 μM, FMN 2.5 μM, luciferase 40 μg/ml, NAD(P)H:FMN oxidoreductase 400 mU/ml, glutamate dehydrogenase 0.5 mg/ml. All experiments were performed with a Monolight 2010 luminomitor (Analytical Luminescence Lab; Ann Arbor, Mich.).
For experiments in which [Glu]o concentrations were assessed by the bioluminescence method, cells were maintained in glutamate-depleted medium in the presence or absence of the agonists/antagonist combination of interest. To assess chronic effects, glutamate analogues were applied for 24 hours unless indicated otherwise. After the incubation period, the stimulation media (containing drugs of interest) were aspirated and cells were washed twice with MEM and allowed to remain for 30 to 60 minutes in drug free MEM supplemented with 20 mM glucose prior to taking media samples for glutamate measurements. To assess acute drug effects, untreated cells were washed and the reagent of interest applied in glucose supplemented MEM. Cells were harvested in 0.3 N NaOH and neutralized with 0.3 N HCl. Aliquots were stored in -20° C. for protein and [Glu]i determination. Glutamate standards used for calibration were prepared in MEM (For [Glu]i in 0.15 N NaCl).
To delineate the role of mGluR receptors on [Glu]o levels, hippocampal astrocytes were challenged with 50 μM glutamate and cells that were pretreated with trans-ACPD were compared to control cultures (FIG. 2A). Control astrocytes rapidly remove glutamate from the medium, and after ≈3 hours, [Glu]o stabilized at values to 1 μM. […] Mean values were 0.96±0.1 μM in control astrocytes, as compared to 0.18±0.03 μM in trans-ACPD treated astrocytes.
Glutamate undoubtedly is the endogenous ligand for mGluRs. However, it was necessary to establish whether glutamate itself can induce the modulation in glutamate levels observed, and thus can mimic the modulatory effects observed with ACPD. These studies are difficult since, unlike ACPD, glutamate is also a substrate for the transporter, and therefore, is readily removed. Experiments were carried out in two ways, each yielding similar results. First, cells were preincubated for 24 hours with 100 μM glutamate, then washed and [Glu]o measured in MEM, or secondly, glutamate was directly applied in MEM and changes in [Glu]o were monitored.

The test system of data set [3] is GLT-1. Particulars: cited from earlier work.

For `N[C@@H](CCC(=O)O)C(=O)O` [glutamate], the IC50 in data set [1] is ~5 µM. Also, the neuronal cell death result in data set [1] (0.03 mM) is reported as “neurotoxic to most neurons”. Moreover, the “susceptibility of neurons to glutamate by age” value is “highest glutamate sensitivity” in data set [1] (adult rats (>30 days)) and “relatively insensitive” in data set [1] (young rats). In addition, the “glutamate concentrations inducing rapid cell death” value in data set [1] (rat) fell in the range of 3 to 5 µM. The “duration of glutamate undershoot” value in data set [2] (100 μM glutamate) is listed as “approximately 10 hours”. Besides, in data set [2] (100 μM glutamate several hours before, 200 μM THA), the “THA induced glutamate release during undershoot” value is given as “induced less glutamate release”. Further, in data set [2] (100 μM glutamate, P22 astrocyte culture), the “[Glu]o undershoot level after glutamate challenge” value was “≈ 0.4 μM”. Besides, the Km in data set [3] was 2 µM.
